Measured values: PMC12670405, “Second-Generation AURKA-Targeting PROTACs: Structural Optimization toward in Vivo Degradation in Neuroblastoma” (Journal of Medicinal Chemistry, 2025)

Legend:
Assay in all cases: KINOMEscan scanMAX
Format in all cases: binding
Details in all cases: read-out: Percent Control
RET(V804L) = target: T1, RET(V804L) (Homo sapiens, UniProt P07949, V804L)
T1 construct: purchased Eurofins Discovery (DiscoverX KINOMEscan scanMAX)
Method: (§1) The kinome-wide binding assay was performed by Eurofins Discovery using the scanMAX screening platform. More information can be found on the Eurofins Discovery Web site.

PRKX = target: T2, PRKX (Homo sapiens, UniProt P51817)
T2 construct: purchased Eurofins Discovery (DiscoverX KINOMEscan scanMAX)
Method: as §1

[1] = target: T3, ABL1(T315I)-nonphosphorylated (Homo sapiens, UniProt P00519, T315I)
T3 construct: purchased Eurofins Discovery (DiscoverX KINOMEscan scanMAX)
Method: as §1

FER = target: T4, FER (Homo sapiens, UniProt P16591)
T4 construct: purchased Eurofins Discovery (DiscoverX KINOMEscan scanMAX)
Method: as §1

FYN = target: T5, FYN (Homo sapiens, UniProt P06241)
T5 construct: purchased Eurofins Discovery (DiscoverX KINOMEscan scanMAX)
T5 sequence (P06241 whole entry): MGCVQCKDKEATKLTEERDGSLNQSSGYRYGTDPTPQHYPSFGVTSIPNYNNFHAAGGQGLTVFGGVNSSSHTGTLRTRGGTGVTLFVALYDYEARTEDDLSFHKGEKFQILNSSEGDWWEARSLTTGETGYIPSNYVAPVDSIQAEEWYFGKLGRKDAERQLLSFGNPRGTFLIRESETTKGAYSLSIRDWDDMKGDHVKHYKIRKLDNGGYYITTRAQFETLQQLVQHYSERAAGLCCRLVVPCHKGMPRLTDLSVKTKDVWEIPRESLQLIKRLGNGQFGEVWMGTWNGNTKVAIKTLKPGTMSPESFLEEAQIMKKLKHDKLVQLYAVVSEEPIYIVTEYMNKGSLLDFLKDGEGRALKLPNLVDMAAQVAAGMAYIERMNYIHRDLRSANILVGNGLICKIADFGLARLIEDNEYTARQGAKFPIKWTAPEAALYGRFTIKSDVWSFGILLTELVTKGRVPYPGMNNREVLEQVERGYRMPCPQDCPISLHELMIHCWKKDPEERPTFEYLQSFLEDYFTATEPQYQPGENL
Method: as §1

YANK3 = target: T6, YANK3 (Homo sapiens, UniProt Q86UX6)
T6 construct: purchased Eurofins Discovery (DiscoverX KINOMEscan scanMAX)
T6 sequence (Q86UX6 whole entry): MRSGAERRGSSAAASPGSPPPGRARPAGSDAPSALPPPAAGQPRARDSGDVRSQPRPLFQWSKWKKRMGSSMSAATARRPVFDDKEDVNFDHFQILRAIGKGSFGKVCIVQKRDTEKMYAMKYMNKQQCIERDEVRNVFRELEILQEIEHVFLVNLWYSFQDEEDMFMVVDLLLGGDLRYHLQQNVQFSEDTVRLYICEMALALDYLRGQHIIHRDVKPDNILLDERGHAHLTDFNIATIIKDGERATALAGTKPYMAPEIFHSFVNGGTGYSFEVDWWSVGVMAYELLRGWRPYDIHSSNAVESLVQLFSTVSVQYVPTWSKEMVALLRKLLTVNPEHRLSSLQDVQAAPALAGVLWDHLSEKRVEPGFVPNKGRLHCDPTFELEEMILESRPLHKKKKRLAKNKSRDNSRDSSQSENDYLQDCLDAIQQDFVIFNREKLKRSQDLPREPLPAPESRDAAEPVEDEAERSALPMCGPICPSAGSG
Method: as §1

CSNK2A2 = target: T7, CSNK2A2 (Homo sapiens, UniProt P19784)
T7 construct: purchased Eurofins Discovery (DiscoverX KINOMEscan scanMAX)
T7 sequence (P19784 whole entry): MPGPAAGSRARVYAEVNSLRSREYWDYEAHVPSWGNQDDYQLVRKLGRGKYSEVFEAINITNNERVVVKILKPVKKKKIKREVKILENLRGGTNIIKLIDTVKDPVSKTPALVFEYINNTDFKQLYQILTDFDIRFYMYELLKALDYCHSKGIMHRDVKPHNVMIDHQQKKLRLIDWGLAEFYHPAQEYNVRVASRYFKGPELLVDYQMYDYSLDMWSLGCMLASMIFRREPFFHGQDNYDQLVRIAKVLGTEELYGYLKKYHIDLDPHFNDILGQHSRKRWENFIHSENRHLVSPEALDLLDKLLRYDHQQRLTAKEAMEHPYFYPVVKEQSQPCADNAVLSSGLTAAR
Method: as §1

MARK2 = target: T8, MARK2 (Homo sapiens, UniProt Q7KZI7)
T8 construct: purchased Eurofins Discovery (DiscoverX KINOMEscan scanMAX)
Method: as §1

ABL1-nonphosphorylated = target: T9, ABL1-nonphosphorylated (Homo sapiens, UniProt P00519)
T9 construct: purchased Eurofins Discovery (DiscoverX KINOMEscan scanMAX)
Method: as §1

PAK7 = target: T10, PAK7 (Homo sapiens, UniProt Q9P286)
T10 construct: purchased Eurofins Discovery (DiscoverX KINOMEscan scanMAX)
Method: as §1

PKN1 = target: T11, PKN1 (Homo sapiens, UniProt Q16512)
T11 construct: purchased Eurofins Discovery (DiscoverX KINOMEscan scanMAX)
Method: as §1

EGFR(E746-A750del) = target: T12, EGFR(E746-A750del) (Homo sapiens, UniProt P00533, DEL746-750)
T12 construct: purchased Eurofins Discovery (DiscoverX KINOMEscan scanMAX)
T12 sequence (P00533 with tags, fused parts or gaps DEL746-750 limits assumed): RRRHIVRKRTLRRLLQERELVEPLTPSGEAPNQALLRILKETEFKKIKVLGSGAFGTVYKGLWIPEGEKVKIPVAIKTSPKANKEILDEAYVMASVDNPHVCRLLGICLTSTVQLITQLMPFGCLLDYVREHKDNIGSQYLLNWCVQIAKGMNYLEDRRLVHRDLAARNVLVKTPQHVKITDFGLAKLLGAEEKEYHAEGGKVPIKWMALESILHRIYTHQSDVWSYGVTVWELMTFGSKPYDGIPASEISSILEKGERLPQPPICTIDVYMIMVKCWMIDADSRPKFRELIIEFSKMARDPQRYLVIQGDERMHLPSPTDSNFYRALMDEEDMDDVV
Method: as §1

FAK = target: T13, FAK (Homo sapiens, UniProt Q05397)
T13 construct: purchased Eurofins Discovery (DiscoverX KINOMEscan scanMAX)
T13 sequence (Q05397 whole entry): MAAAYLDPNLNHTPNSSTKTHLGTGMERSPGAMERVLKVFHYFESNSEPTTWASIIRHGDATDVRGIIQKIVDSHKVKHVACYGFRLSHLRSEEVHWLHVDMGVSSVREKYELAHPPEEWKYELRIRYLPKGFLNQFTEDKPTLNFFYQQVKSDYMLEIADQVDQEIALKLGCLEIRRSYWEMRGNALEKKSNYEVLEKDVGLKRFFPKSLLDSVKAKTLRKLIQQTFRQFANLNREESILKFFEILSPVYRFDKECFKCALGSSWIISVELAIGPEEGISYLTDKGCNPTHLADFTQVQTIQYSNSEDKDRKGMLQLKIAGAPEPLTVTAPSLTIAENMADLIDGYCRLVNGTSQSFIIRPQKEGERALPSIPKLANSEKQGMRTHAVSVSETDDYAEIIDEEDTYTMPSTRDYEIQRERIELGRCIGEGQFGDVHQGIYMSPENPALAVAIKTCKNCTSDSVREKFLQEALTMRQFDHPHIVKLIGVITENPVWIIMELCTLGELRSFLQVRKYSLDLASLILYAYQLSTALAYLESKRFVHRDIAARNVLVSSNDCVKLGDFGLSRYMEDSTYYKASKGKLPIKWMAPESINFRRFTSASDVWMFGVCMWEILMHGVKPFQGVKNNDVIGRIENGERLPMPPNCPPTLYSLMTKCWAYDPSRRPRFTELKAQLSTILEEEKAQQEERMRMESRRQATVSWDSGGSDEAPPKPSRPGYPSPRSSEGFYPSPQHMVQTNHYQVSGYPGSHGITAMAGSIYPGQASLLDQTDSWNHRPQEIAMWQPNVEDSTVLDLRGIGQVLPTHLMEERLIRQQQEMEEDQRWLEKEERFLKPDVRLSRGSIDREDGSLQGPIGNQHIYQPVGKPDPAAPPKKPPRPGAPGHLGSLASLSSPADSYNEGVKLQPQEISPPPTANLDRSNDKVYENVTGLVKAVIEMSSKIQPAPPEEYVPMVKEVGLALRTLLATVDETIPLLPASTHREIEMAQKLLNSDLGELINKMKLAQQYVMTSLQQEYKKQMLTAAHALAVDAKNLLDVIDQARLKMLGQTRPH
Method: as §1

ALK = target: T14, ALK (Homo sapiens, UniProt Q9UM73)
T14 construct: purchased Eurofins Discovery (DiscoverX KINOMEscan scanMAX)
Method: as §1

MARK4 = target: T15, MARK4 (Homo sapiens, UniProt Q96L34)
T15 construct: purchased Eurofins Discovery (DiscoverX KINOMEscan scanMAX)
T15 sequence (Q96L34 whole entry): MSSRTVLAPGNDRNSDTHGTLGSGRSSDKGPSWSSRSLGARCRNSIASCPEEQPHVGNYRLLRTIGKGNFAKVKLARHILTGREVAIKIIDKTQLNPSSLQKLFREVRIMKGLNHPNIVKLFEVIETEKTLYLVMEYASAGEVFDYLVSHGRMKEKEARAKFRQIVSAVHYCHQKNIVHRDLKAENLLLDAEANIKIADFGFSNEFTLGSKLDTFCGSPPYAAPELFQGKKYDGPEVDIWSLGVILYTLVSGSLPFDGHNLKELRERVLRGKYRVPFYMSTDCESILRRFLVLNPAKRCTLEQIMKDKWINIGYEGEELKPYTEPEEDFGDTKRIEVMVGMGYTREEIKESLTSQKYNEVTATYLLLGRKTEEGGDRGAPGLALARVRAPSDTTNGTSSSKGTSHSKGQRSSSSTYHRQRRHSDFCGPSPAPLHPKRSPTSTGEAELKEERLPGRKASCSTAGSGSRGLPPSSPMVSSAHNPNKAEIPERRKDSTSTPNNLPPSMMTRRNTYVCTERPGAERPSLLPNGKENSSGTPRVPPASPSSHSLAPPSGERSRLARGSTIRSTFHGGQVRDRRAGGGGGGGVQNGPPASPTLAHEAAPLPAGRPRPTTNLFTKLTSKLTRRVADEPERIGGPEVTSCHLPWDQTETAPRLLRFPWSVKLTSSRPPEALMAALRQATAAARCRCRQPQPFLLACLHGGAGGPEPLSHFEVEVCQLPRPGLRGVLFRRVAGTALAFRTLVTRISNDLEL
Method: as §1

IRAK1 = target: T16, IRAK1 (Homo sapiens, UniProt P51617)
T16 construct: purchased Eurofins Discovery (DiscoverX KINOMEscan scanMAX)
Method: as §1

[2] = target: T17, RSK3(Kin.Dom.1-N-terminal) (Homo sapiens, UniProt Q15349)
T17 construct: RSK3(Kin.Dom.1-N-terminal); purchased Eurofins Discovery (DiscoverX KINOMEscan scanMAX)
Method: as §1

PFPK5(P.falciparum) = target: T18, PFPK5(P.falciparum) (Plasmodium falciparum, UniProt P61075)
T18 construct: purchased Eurofins Discovery (DiscoverX KINOMEscan scanMAX)
Method: as §1

EGFR = target: T19, EGFR (Homo sapiens, UniProt P00533)
T19 construct: purchased Eurofins Discovery (DiscoverX KINOMEscan scanMAX)
Method: as §1

TLK2 = target: T20, TLK2 (Homo sapiens, UniProt Q86UE8)
T20 construct: purchased Eurofins Discovery (DiscoverX KINOMEscan scanMAX)
Method: as §1

PIP5K2C = target: T21, PIP5K2C (Homo sapiens, UniProt Q8TBX8)
T21 construct: purchased Eurofins Discovery (DiscoverX KINOMEscan scanMAX)
Method: as §1

SRC = target: T22, SRC (Homo sapiens, UniProt P12931)
T22 construct: purchased Eurofins Discovery (DiscoverX KINOMEscan scanMAX)
Method: as §1

DRAK1 = target: T23, DRAK1 (Homo sapiens, UniProt Q9UEE5)
T23 construct: purchased Eurofins Discovery (DiscoverX KINOMEscan scanMAX)
Method: as §1

ABL1-phosphorylated = target: T24, ABL1-phosphorylated (Homo sapiens, UniProt P00519)
T24 construct: purchased Eurofins Discovery (DiscoverX KINOMEscan scanMAX)
Method: as §1

YES = target: T25, YES (Homo sapiens, UniProt P07947)
T25 construct: purchased Eurofins Discovery (DiscoverX KINOMEscan scanMAX)
T25 sequence (P07947 whole entry): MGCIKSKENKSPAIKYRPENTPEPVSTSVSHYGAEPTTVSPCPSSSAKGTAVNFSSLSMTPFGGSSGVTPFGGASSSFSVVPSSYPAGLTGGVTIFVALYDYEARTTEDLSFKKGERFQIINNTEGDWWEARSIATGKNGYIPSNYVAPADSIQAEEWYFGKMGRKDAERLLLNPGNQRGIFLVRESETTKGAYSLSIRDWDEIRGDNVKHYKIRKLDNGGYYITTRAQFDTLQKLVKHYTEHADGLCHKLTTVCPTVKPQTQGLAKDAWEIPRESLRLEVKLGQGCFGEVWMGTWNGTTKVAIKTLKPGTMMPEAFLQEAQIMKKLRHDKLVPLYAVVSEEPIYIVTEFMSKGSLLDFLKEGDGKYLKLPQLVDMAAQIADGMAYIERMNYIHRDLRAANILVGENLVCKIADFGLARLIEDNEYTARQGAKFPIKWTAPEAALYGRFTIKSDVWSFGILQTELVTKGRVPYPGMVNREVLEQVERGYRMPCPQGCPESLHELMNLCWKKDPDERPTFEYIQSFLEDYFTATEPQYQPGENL
Method: as §1

QSK = target: T26, QSK (Homo sapiens, UniProt Q9Y2K2)
T26 construct: purchased Eurofins Discovery (DiscoverX KINOMEscan scanMAX)
Method: as §1

CAMK1B = target: T27, CAMK1B (Homo sapiens, UniProt Q6P2M8)
T27 construct: purchased Eurofins Discovery (DiscoverX KINOMEscan scanMAX)
Method: as §1

HUNK = target: T28, HUNK (Homo sapiens, UniProt P57058)
T28 construct: purchased Eurofins Discovery (DiscoverX KINOMEscan scanMAX)
Method: as §1

CSF1R-autoinhibited = target: T29, CSF1R-autoinhibited (Homo sapiens, UniProt P07333)
T29 construct: purchased Eurofins Discovery (DiscoverX KINOMEscan scanMAX)
T29 sequence (P07333 539-972 limits assumed): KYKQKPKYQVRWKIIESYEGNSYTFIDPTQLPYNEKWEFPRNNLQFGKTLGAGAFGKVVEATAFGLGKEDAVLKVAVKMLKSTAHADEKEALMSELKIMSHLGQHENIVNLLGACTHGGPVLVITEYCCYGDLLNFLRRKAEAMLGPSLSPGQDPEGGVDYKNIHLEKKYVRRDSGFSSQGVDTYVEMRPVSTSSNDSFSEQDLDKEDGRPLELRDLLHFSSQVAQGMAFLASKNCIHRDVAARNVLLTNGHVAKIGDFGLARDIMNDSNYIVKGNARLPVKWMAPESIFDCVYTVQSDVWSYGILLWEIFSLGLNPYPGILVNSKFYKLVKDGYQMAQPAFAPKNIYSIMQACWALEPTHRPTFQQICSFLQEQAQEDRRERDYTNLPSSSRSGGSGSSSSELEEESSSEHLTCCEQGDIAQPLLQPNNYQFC
Method: as §1

[3] = target: T30, JAK3(JH1domain-catalytic) (Homo sapiens, UniProt P52333)
T30 construct: JAK3(JH1domain-catalytic); purchased Eurofins Discovery (DiscoverX KINOMEscan scanMAX)
Method: as §1

CDK4-cyclinD1 = target: T31, CDK4-cyclinD1 (Homo sapiens, UniProt P11802)
T31 construct: purchased Eurofins Discovery (DiscoverX KINOMEscan scanMAX)
Method: as §1

EPHA6 = target: T32, EPHA6 (Homo sapiens, UniProt Q9UF33)
T32 construct: purchased Eurofins Discovery (DiscoverX KINOMEscan scanMAX)
Method: as §1

NIM1 = target: T33, NIM1 (Homo sapiens, UniProt Q8IY84)
T33 construct: purchased Eurofins Discovery (DiscoverX KINOMEscan scanMAX)
T33 sequence (Q8IY84 whole entry): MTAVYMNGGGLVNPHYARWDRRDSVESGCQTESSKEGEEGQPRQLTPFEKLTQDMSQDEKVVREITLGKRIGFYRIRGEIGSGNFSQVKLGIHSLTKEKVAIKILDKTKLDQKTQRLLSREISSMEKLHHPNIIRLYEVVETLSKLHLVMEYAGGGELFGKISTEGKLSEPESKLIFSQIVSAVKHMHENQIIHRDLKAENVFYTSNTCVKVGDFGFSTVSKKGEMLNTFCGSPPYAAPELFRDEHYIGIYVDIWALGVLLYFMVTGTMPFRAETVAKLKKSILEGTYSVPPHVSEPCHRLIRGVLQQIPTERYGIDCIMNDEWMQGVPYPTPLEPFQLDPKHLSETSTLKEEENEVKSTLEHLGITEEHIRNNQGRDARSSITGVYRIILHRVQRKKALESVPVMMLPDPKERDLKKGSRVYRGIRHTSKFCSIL
Method: as §1

For `Cc1cc(Nc2ccc(F)c(CC3(C(=O)N4CCC(F)(CN5CCN(c6ccc(N7CCC(=O)NC7=O)cn6)CC5)CC4)CCN(Cc4cccc(Cl)c4F)CC3)n2)n[nH]1` [SK5527], the remaining binding at 0.1 µM (RET(V804L); 100 nM) was 92%, the remaining binding at 1 µM (RET(V804L); 1000 nM) was 38% and the remaining binding at 0.1 µM (PRKX; 100 nM) was 79%. It also gave a remaining binding at 1 µM (PRKX; 1000 nM) of 96%, a remaining binding at 0.1 µM ([1]; 100 nM) of 24% and a remaining binding at 1 µM ([1]; 1000 nM) of 0%. The remaining binding at 0.1 µM (FER; 100 nM) was 84%, the remaining binding at 1 µM (FER; 1000 nM) was 100% and the remaining binding at 0.1 µM (FYN; 100 nM) was 94%. It also gave a remaining binding at 1 µM (FYN; 1000 nM) of 71%, a remaining binding at 0.1 µM (YANK3; 100 nM) of 86% and a remaining binding at 1 µM (YANK3; 1000 nM) of 80%. It also gave a remaining binding at 0.1 µM (CSNK2A2; 100 nM) of 100%, a remaining binding at 1 µM (CSNK2A2; 1000 nM) of 100% and a remaining binding at 0.1 µM (MARK2; 100 nM) of 91%. It also gave a remaining binding at 1 µM (MARK2; 1000 nM) of 62%, a remaining binding at 0.1 µM (ABL1-nonphosphorylated; 100 nM) of 55% and a remaining binding at 1 µM (ABL1-nonphosphorylated; 1000 nM) of 8.4%. For the same molecule, the remaining binding at 0.1 µM (PAK7; 100 nM) was 98%, the remaining binding at 1 µM (PAK7; 1000 nM) was 74% and the remaining binding at 0.1 µM (PKN1; 100 nM) was 100%. It also gave a remaining binding at 1 µM (PKN1; 1000 nM) of 89%, a remaining binding at 0.1 µM (EGFR(E746-A750del); 100 nM) of 78% and a remaining binding at 1 µM (EGFR(E746-A750del); 1000 nM) of 70%. It also gave a remaining binding at 0.1 µM (FAK; 100 nM) of 90%, a remaining binding at 1 µM (FAK; 1000 nM) of 77% and a remaining binding at 0.1 µM (ALK; 100 nM) of 73%. The remaining binding at 1 µM (ALK; 1000 nM) was 62%, the remaining binding at 0.1 µM (MARK4; 100 nM) was 100% and the remaining binding at 1 µM (MARK4; 1000 nM) was 100%. It also gave a remaining binding at 0.1 µM (IRAK1; 100 nM) of 94%, a remaining binding at 1 µM (IRAK1; 1000 nM) of 76% and a remaining binding at 0.1 µM ([2]; 100 nM) of 100%. The remaining binding at 1 µM ([2]; 1000 nM) was 96%, the remaining binding at 0.1 µM (PFPK5(P.falciparum); 100 nM) was 89% and the remaining binding at 1 µM (PFPK5(P.falciparum); 1000 nM) was 80%. It also gave a remaining binding at 0.1 µM (EGFR; 100 nM) of 91%, a remaining binding at 1 µM (EGFR; 1000 nM) of 82% and a remaining binding at 0.1 µM (TLK2; 100 nM) of 100%. It also gave a remaining binding at 1 µM (TLK2; 1000 nM) of 94%, a remaining binding at 0.1 µM (PIP5K2C; 100 nM) of 100% and a remaining binding at 1 µM (PIP5K2C; 1000 nM) of 100%. The remaining binding at 0.1 µM (SRC; 100 nM) was 66%, the remaining binding at 1 µM (SRC; 1000 nM) was 33% and the remaining binding at 0.1 µM (DRAK1; 100 nM) was 100%. It also gave a remaining binding at 1 µM (DRAK1; 1000 nM) of 87%, a remaining binding at 0.1 µM (ABL1-phosphorylated; 100 nM) of 67% and a remaining binding at 1 µM (ABL1-phosphorylated; 1000 nM) of 48%. The remaining binding at 0.1 µM (YES; 100 nM) was 73%, the remaining binding at 1 µM (YES; 1000 nM) was 70% and the remaining binding at 0.1 µM (QSK; 100 nM) was 89%. The remaining binding at 1 µM (QSK; 1000 nM) was 90%, the remaining binding at 0.1 µM (CAMK1B; 100 nM) was 100% and the remaining binding at 1 µM (CAMK1B; 1000 nM) was 100%. It also gave a remaining binding at 0.1 µM (HUNK; 100 nM) of 93%, a remaining binding at 1 µM (HUNK; 1000 nM) of 100% and a remaining binding at 0.1 µM (CSF1R-autoinhibited; 100 nM) of 100%. It also gave a remaining binding at 1 µM (CSF1R-autoinhibited; 1000 nM) of 100%, a remaining binding at 0.1 µM ([3]; 100 nM) of 100% and a remaining binding at 1 µM ([3]; 1000 nM) of 80%. It also gave a remaining binding at 0.1 µM (CDK4-cyclinD1; 100 nM) of 100%, a remaining binding at 1 µM (CDK4-cyclinD1; 1000 nM) of 87% and a remaining binding at 0.1 µM (EPHA6; 100 nM) of 100%. It also gave a remaining binding at 1 µM (EPHA6; 1000 nM) of 93%, a remaining binding at 0.1 µM (NIM1; 100 nM) of 58% and a remaining binding at 1 µM (NIM1; 1000 nM) of 76%.
